Literature values as cited in US20060247203A1, “Freeze-dried preparation containing methylcobalamin and process for producing the same” (EISAI CO., LTD., priority 2003, published 2006).

System: patients with amyotrophic lateral sclerosis
Settings: ALS patients; methylcobalamin 15 to 50 mg/once daily via intramuscular injection

C/C1=C2/[N-][C@H]([C@H](CC(N)=O)[C@@]2(C)CCC(=O)NC[C@@H](C)OP(=O)([O-])O[C@H]2[C@@H](O)[C@@H](n3cnc4cc(C)c(C)cc43)O[C@@H]2CO)[C@]2(C)N=C(/C(C)=C3N=C(/C=C4N=C1[C@@H](CCC(N)=O)C\4(C)C)[C@@H](CCC(N)=O)[C@]\3(C)CC(N)=O)[C@@H](CCC(N)=O)[C@]2(C)CC(N)=O.[CH3-].[Co+3] [methylcobalamin]
magnitude of compound muscle action potential: significant increase
subjective muscle strength: dose-dependent improvement
